Measured values published in patent US12606528B2, “Methods and materials for inhibiting NF-kB activity” (University of Pittsburgh - Of the Commonwealth System of …, priority 2019, dated 2026).

tested on: NF-κB; assay: NF-κB assay: THP1-NF-κB-LUC cells, LPS-stimulated secreted luciferase; type: cell-based; conditions: THP1-NF-κB-LUC cells, LPS-stimulated; read-out: IC50 (NF-κB assay)
Method: FIG. 1 contains line plots showing NF-κB activity of exemplified compounds. 25k THP1-NF-κB-LUC cells were dispensed into 384 well plate (per well). Cells were treated with compounds (2 μM and 0.2 μM) for 2 hours before addition of LPS (10 ng/mL) for 18 hours. Secreted luciferase activity were measured using quant-luc reagents (1 bag of luc reagent dilute to 40 mL, use 10 μL per well). Data were normalized to vehicle control and graphed. Structures of selected exemplified compounds are shown.
FIG. 2 contains heat charts showing NF-κB activity of exemplified compounds as a function of concentration. 25k THP1-NF-κB-LUC cells were dispensed into 384 well plate (per well). Cells were treated with compounds (with serial dilution) for 2 hours before addition of LPS (10 ng/ml) for 18 hours. Secreted luciferase activity were measured using quant-luc reagents (1 bag of luc reagent dilute to 40 mL, use 10 μL per well). Structures of selected exemplified compounds are shown.
25k THP1-NF-κB-LUC cells were dispensed into 384 well plate (per well). Cells were treated with compounds with various concentrations for 2 hours before addition of LPS (10 ng/mL) for 18 hours. Secreted luciferase activity were measured using quant-luc reagents (1 bag of luc reagent dilute to 40 mL, use 10 μL per well). Data were normalized to vehicle control and graphed. Compound IC50 towards inhibiting NF-κB were determined through Prism. Similarly, 10k human PBMCs cells were cultured in 384 well plate (per well). Cells were treated with compounds with various concentrations for 2 hours before addition of LPS (10 ng/ml) for 18 hours, and supernatants were collected and assayed for TNF ELISA. Compound IC50 towards inhibiting TNF release were determined through Prism. • Activity: “+”>10 μM, “++”>1 μM and <10 μM, “+++”>0.1 μM and <1 μM, “++++”<0.1 μM.

IC50	Structure (SMILES)
100 to 1000 nM	O=C(NCCc1ccccc1)c1ccc2nc(-c3ccc(F)cc3)c(-c3ccc(F)cc3)nc2c1 [BC18435]
1000 to 10000 nM	Cc1cccc(-c2nc3ccc(C(=O)N4CCN(c5ncccn5)CC4)cc3nc2-c2cccc(C)c2)c1 [BC18436]
< 100 nM	O=C(NCCCN1CCOCC1)c1ccc2nc(-c3ccc(F)cc3)c(-c3ccc(F)cc3)nc2c1 [BC18437]
< 100 nM	O=C(NCCCN1CCCC1)c1ccc2nc(-c3ccc(F)cc3)c(-c3ccc(F)cc3)nc2c1 [BC18438]
< 100 nM	CCCN1CCN(C(=O)c2ccc3nc(-c4ccccc4)c(-c4ccccc4)nc3c2)CC1 [BC18440]
< 100 nM	CC(C)NC(=O)c1ccc2nc(-c3ccccc3)c(-c3ccccc3)nc2c1 [BC18443]
< 100 nM	O=C(NCCN1CCCC1)c1ccc2nc(-c3ccc(F)cc3)c(-c3ccc(F)cc3)nc2c1 [BC18449]
1000 to 10000 nM	COc1ccc(-c2nc3ccc(C(=O)NCCN4CCOCC4)cc3nc2-c2ccc(OC)cc2)cc1 [BC18453]
100 to 1000 nM	CCCNC(=O)c1ccc2nc(-c3ccccc3)c(-c3ccccc3)nc2c1 [BC18454]
> 10000 nM	Cc1ccc(-c2nc3ccc(C(=O)NCc4ccc(Cl)cc4)cc3nc2-c2ccc(C)cc2)cc1 [BC18455]
< 100 nM	O=C(NCCN1CCCCC1)c1ccc2nc(-c3ccc(F)cc3)c(-c3ccc(F)cc3)nc2c1 [BC18456]
> 10000 nM	Cc1cccc(-c2nc3ccc(C(=O)NCc4ccc(Cl)cc4)cc3nc2-c2cccc(C)c2)c1 [BC18457]
< 100 nM	O=C(NCCCN1CCCC1=O)c1ccc2nc(-c3ccc(F)cc3)c(-c3ccc(F)cc3)nc2c1 [BC18459]
< 100 nM	CN1CCN(CCNC(=O)c2ccc3nc(-c4ccc(F)cc4)c(-c4ccc(F)cc4)nc3c2)CC1 [BC18460]
< 100 nM	O=C(c1ccc2nc(-c3ccccc3)c(-c3ccccc3)nc2c1)N1CCN(C(=O)c2ccco2)CC1 [BC18462]
> 10000 nM	Cc1ccc(-c2nc3ccc(C(=O)NCc4ccc(F)cc4)cc3nc2-c2ccc(C)cc2)cc1 [BC18466]
100 to 1000 nM	CC(CNC(=O)c1ccc2nc(-c3ccc(F)cc3)c(-c3ccc(F)cc3)nc2c1)c1ccccc1 (stereo not drawn) [BC18467]
> 10000 nM	Cc1ccc(CNC(=O)c2ccc3nc(-c4cccc(C)c4)c(-c4cccc(C)c4)nc3c2)cc1 [BC18468]
< 100 nM	CCN(CC)CCCNC(=O)c1ccc2nc(-c3ccc(F)cc3)c(-c3ccc(F)cc3)nc2c1 [BC18469]
< 100 nM	COCCNC(=O)c1ccc2nc(-c3ccc(F)cc3)c(-c3ccc(F)cc3)nc2c1 [BC18470]
100 to 1000 nM	CCN1CCN(CCCNC(=O)c2ccc3nc(-c4ccccc4)c(-c4ccccc4)nc3c2)CC1 [BC18472]
< 100 nM	CCN1CCN(C(=O)c2ccc3nc(-c4ccccc4)c(-c4ccccc4)nc3c2)CC1 [BC18473]

IC50	Structure (SMILES)
1000 to 10000 nM	Cc1cccc(-c2nc3ccc(C(=O)NCCN(C)C4CCCCC4)cc3nc2-c2cccc(C)c2)c1 [BC18474]
> 10000 nM	O=C(NCc1ccccc1)c1ccc2nc(-c3ccccc3)c(-c3ccccc3)nc2c1 [BC18475]
100 to 1000 nM	O=C(c1ccc2nc(-c3ccccc3)c(-c3ccccc3)nc2c1)N1CCN(c2ccccn2)CC1 [BC18476]
1000 to 10000 nM	CCOc1ccc(-c2nc3ccc(C(=O)NCCN(C)C)cc3nc2-c2ccc(OCC)cc2)cc1 [BC18477]
100 to 1000 nM	CN(C)c1ccc(CNC(=O)c2ccc3nc(-c4ccc(F)cc4)c(-c4ccc(F)cc4)nc3c2)cc1 [BC18478]
< 100 nM	CN(C)CCNC(=O)c1ccc2nc(-c3ccc(F)cc3)c(-c3ccc(F)cc3)nc2c1 [BC18480]
< 100 nM	CN1CCN(C(=O)c2ccc3nc(-c4ccc(F)cc4)c(-c4ccc(F)cc4)nc3c2)CC1 [BC18482]
< 100 nM	CC1CCCCN1CCNC(=O)c1ccc2nc(-c3ccccc3)c(-c3ccccc3)nc2c1 (stereo not drawn) [BC18483]
1000 to 10000 nM	Cc1cccc(-c2nc3ccc(C(=O)NCCN(C)C)cc3nc2-c2cccc(C)c2)c1 [BC18484]
1000 to 10000 nM	Cc1cccc(-c2nc3ccc(C(=O)NCCN4CCCCC4)cc3nc2-c2cccc(C)c2)c1 [BC18485]
> 10000 nM	CC(=O)CSc1oc(-c2ccccc2)nc1S(=O)(=O)c1ccc(Cl)cc1 [BC18501]
1000 to 10000 nM	CCCCSc1oc(-c2ccc(F)cc2)nc1S(=O)(=O)c1ccc(C)cc1 [BC18505]
> 10000 nM	CCCCSc1oc(-c2ccc(F)cc2)nc1S(=O)(=O)c1ccc(F)cc1 [BC18506]
< 100 nM	CCS(=O)(=O)c1oc(-c2ccc(F)cc2)nc1S(=O)(=O)c1ccccc1 [BC18508]
100 to 1000 nM	CCCCS(=O)(=O)c1oc(-c2ccc(F)cc2)nc1S(=O)(=O)c1ccc(F)cc1 [BC18510]
< 100 nM	CC(C)S(=O)(=O)c1oc(-c2ccc(F)cc2)nc1S(=O)(=O)c1ccc(Br)cc1 [BC18511]
1000 to 10000 nM	CCSc1oc(-c2ccccc2)nc1S(=O)(=O)c1ccccc1 [BC18512]
1000 to 10000 nM	CCSc1oc(-c2ccc(C)cc2)nc1S(=O)(=O)c1ccc(F)cc1 [BC18514]
1000 to 10000 nM	CCC(C)Sc1oc(-c2ccc(F)cc2)nc1S(=O)(=O)c1ccc(C)cc1 (stereo not drawn) [BC18517]
1000 to 10000 nM	CCC(C)Sc1oc(-c2ccc(F)cc2)nc1S(=O)(=O)c1ccc(F)cc1 (stereo not drawn) [BC18518]
> 10000 nM	CCCCSc1oc(-c2ccc(F)cc2)nc1S(=O)(=O)c1ccc(Cl)cc1 [BC18519]

The remaining lines, values behind:

Structure (SMILES)	IC50
O=C(NC1CC1)c1ccc2nc(-c3ccccc3)c(-c3ccccc3)nc2c1 [BC18439]	< 100 nM
Cc1cccc(-c2nc3ccc(C(=O)NCCN4CCCCC4C)cc3nc2-c2cccc(C)c2)c1 (stereo not drawn) [BC18441]	1000 to 10000 nM
CC(C)CCNC(=O)c1ccc2nc(-c3ccc(F)cc3)c(-c3ccc(F)cc3)nc2c1 [BC18442]	< 100 nM
Cc1ccc(-c2nc3ccc(C(=O)NCc4ccccc4)cc3nc2-c2ccc(C)cc2)cc1 [BC18444]	> 10000 nM
Cc1cccc(CNC(=O)c2ccc3nc(-c4ccccc4)c(-c4ccccc4)nc3c2)c1 [BC18445]	100 to 1000 nM
Cc1cccc(-c2nc3ccc(C(=O)NCc4ccccc4)cc3nc2-c2cccc(C)c2)c1 [BC18446]	> 10000 nM
O=C(NCc1ccccn1)c1ccc2nc(-c3ccc(F)cc3)c(-c3ccc(F)cc3)nc2c1 [BC18447]	< 100 nM
O=C(NC1CC1)c1ccc2nc(-c3ccc(F)cc3)c(-c3ccc(F)cc3)nc2c1 [BC18448]	< 100 nM
CNC(=O)c1ccc2nc(-c3ccccc3)c(-c3ccccc3)nc2c1 [BC18450]	< 100 nM
O=C(c1ccc2nc(-c3ccccc3)c(-c3ccccc3)nc2c1)N1CCN(c2ccc(F)cc2)CC1 [BC18451]	100 to 1000 nM
CCN1CCN(CCNC(=O)c2ccc3nc(-c4cccc(C)c4)c(-c4cccc(C)c4)nc3c2)CC1 [BC18452]	1000 to 10000 nM
O=C(NCc1cccnc1)c1ccc2nc(-c3ccc(F)cc3)c(-c3ccc(F)cc3)nc2c1 [BC18458]	< 100 nM
O=C(NCCN1CCCCCC1)c1ccc2nc(-c3ccccc3)c(-c3ccccc3)nc2c1 [BC18461]	< 100 nM
Cc1cccc(-c2nc3ccc(C(=O)NCCN4CCN(C)CC4)cc3nc2-c2cccc(C)c2)c1 [BC18463]	1000 to 10000 nM
O=C(NCCN1CCOCC1)c1ccc2nc(-c3ccccc3)c(-c3ccccc3)nc2c1 [BC18464]	< 100 nM
CC(C)CCNC(=O)c1ccc2nc(-c3ccccc3)c(-c3ccccc3)nc2c1 [BC18465]	100 to 1000 nM

Structure (SMILES)	IC50
NC(=O)C1CCN(C(=O)c2ccc3nc(-c4ccc(F)cc4)c(-c4ccc(F)cc4)nc3c2)CC1 [BC18471]	< 100 nM
Cc1cccc(-c2nc3ccc(C(=O)NC(C)C)cc3nc2-c2cccc(C)c2)c1 [BC18479]	1000 to 10000 nM
O=C(NCc1cccs1)c1ccc2nc(-c3ccc(F)cc3)c(-c3ccc(F)cc3)nc2c1 [BC18481]	< 100 nM
Cc1ccc(CNC(=O)c2ccc3nc(-c4ccccc4)c(-c4ccccc4)nc3c2)cc1 [BC18486]	> 10000 nM
CCOC(=O)N1CCN(C(=O)c2ccc3nc(-c4ccccc4)c(-c4ccccc4)nc3c2)CC1 [BC18487]	< 100 nM
CCOc1ccc(-c2nc3ccc(C(=O)NCCN(C)Cc4ccccc4)cc3nc2-c2ccc(OCC)cc2)cc1 [BC18488]	1000 to 10000 nM
Cc1ccc(S(=O)(=O)c2nc(-c3ccccc3)oc2S(=O)(=O)c2ccc(C)cc2)cc1 [BC18500]	< 100 nM
CSc1oc(-c2ccccc2)nc1S(=O)(=O)c1ccc(F)cc1 [BC18502]	> 10000 nM
CC(=O)CSc1oc(-c2ccc(F)cc2)nc1S(=O)(=O)c1ccccc1 [BC18503]	1000 to 10000 nM
O=S(=O)(c1ccccc1)c1nc(-c2ccc(F)cc2)oc1SCc1ccccc1F [BC18504]	1000 to 10000 nM
CC(C)Sc1oc(-c2ccc(F)cc2)nc1S(=O)(=O)c1ccc(Cl)cc1 [BC18507]	1000 to 10000 nM
CCCCS(=O)(=O)c1oc(-c2ccc(F)cc2)nc1S(=O)(=O)c1ccc(C)cc1 [BC18509]	< 100 nM
CSc1oc(-c2ccccc2)nc1S(=O)(=O)c1ccc(Cl)cc1 [BC18513]	> 10000 nM
CSc1oc(-c2ccc(F)cc2)nc1S(=O)(=O)c1ccccc1 [BC18515]	> 10000 nM
O=C(CSc1oc(-c2ccc(F)cc2)nc1S(=O)(=O)c1ccccc1)c1ccc(Cl)cc1 [BC18516]	1000 to 10000 nM
CCCS(=O)(=O)c1oc(-c2ccc(F)cc2)nc1S(=O)(=O)c1ccccc1 [BC18520]	< 100 nM
